Our source for the IC50 values is patent US20240228535A1 (priority 2022, published 2024).

Structures are written as SMILES.

This assay deals with SARS2 coronavirus 3CL protease (Severe acute respiratory syndrome coronavirus 2, UniProt P0DTD1). Put plainly: biochemical. As to conditions: 5 nM enzyme, 30 min pre-incubation with compound, 15 μM peptide substrate, 4 h at room temperature; read-out: FRET Potency (nM); IC50 values in the SARS2 3CLPro FRET assay.

As to `CNC(=O)C(=O)[C@H](C[C@@H]1C[C@@H](C)NC1=O)NC(=O)c1cc(F)c(Cl)cc1NC(=O)OC` [Example 134, methyl N-[5-chloro-4-fluoro-2-[(1S)-3-(methylamino)-1-[[(3S,5R)-5-methyl-2-oxo-pyrrolidin-3-yl]methyl]-2,3-dioxo-propyl]carbamoyl]phenyl] carbamate], the IC50 turned out to be 28.2 nM.

As to `[2H]C([2H])([2H])OC(=O)Nc1ccc(Cl)cc1C(=O)N[C@@H](C[C@@H]1C[C@@H](C)NC1=O)C(=O)C(=O)NC` [Example 112, trideuteriomethyl N-[4-chloro-2-[[(1S)-3-(methylamino)-1-[[(3S,5R)-5-methyl-2-oxo-pyrrolidin-3-yl]methyl]-2,3-dioxo-propyl]carbamoyl]phenyl] carbamate], the IC50 is 6 nM.
